Laboratory results as given in paper PMC10254852, “Design, Synthesis and Anticancer Evaluation of Nitroimidazole Radiosensitisers” (Molecules, 2023).

System: HCT116/54C cells
Test: In vitro cytotoxicity, 4 h exposure oxic/anoxic, 5-day regrowth, sulforhodamine B
Type: cell-based, human
Details: HCT116/54C, IC50(oxic)/IC50(anoxic)
Source text: (§1) This allowed derivation of hypoxia cytotoxicity ratios (HCR) as IC50(oxic)/IC50(anoxic) in an HCT116 subclone HCT116/54C and two HNSCC cell lines, FaDu and UT-SCC-74B (Table 2).
(§2) HCT116/54C is an HCT116 subline that originated from a mixed culture with UT-SCC-54C cells, which was supplied alongside UT-SCC-74B by Prof. Bradly Wouters (University Health Network, Toronto, ON, Canada). HCT116/54C and UT-SCC-74B cells were passaged in minimum essential media (MEM, ThermoFisher Scientific, Waltham, MA, USA) with 10% foetal calf serum (FCS, Moregate Biotech, Hamilton, New Zealand), 4.5 mg/mL D-glucose (Sigma-Aldrich, St. Louis, MO, USA) and 20 mM HEPES (Sigma-Aldrich). FaDu cells were sourced from American Type Culture Collection and cultured in αMEM (ThermoFisher Scientific) with 10% FCS. All cell lines were confirmed mycoplasma-free by PlasmoTest (InvivoGen, San Diego, CA, USA) and were derived from STR-authenticated cryopreserved stocks. Log-phase cells were seeded into 96-well plates at 800 cells/well for HCT116/54C and 1500 cells/well for FaDu. […] After drug washout, cells were grown and stained as for the oxic IC50 assays. The hypoxic cytotoxicity ratio HCR was determined as HCR = IC50(oxic)/IC50(anoxic).

**Q.** For `Cc1ncc([N+](=O)[O-])n1CCS(=O)(=O)N1CCC(N(C)C)CC1` [Compound 46], which HCR is on record?
**A.** 8.6

Same assay, conditions: Homo sapiens; HCT116/54C, anoxic, 4 h exposure, mean ± SEM, n = 3–4; read-out: IC50 Anoxic

**Q.** Which IC50 does the source give for `O=[N+]([O-])c1cncn1CCN1CCOCC1` [Compound 3, nimorazole, reference compound] here?
**A.** > 20 mM

**Q.** With `Cc1ncc([N+](=O)[O-])n1CCS(=O)(=O)N1CCC(N(C)C)CC1` [Compound 46] as the compound, how does the IC50 read?
**A.** 2 ± 0.3 mM

Same assay, conditions: Homo sapiens; HCT116/54C, oxic, 4 h exposure, mean ± SEM, n = 3–4; read-out: IC50 Oxic

**Q.** Which IC50 does the source give for `O=[N+]([O-])c1cncn1CCN1CCOCC1` [Compound 3, nimorazole, reference compound] here?
**A.** > 25 mM

**Q.** Which IC50 does the source give for `Cc1ncc([N+](=O)[O-])n1CCS(=O)(=O)N1CCC(N(C)C)CC1` [Compound 46] here?
**A.** 16.9 ± 1.4 mM

System: UT-SCC-74B cells
Test: as above
Type: cell-based, human
Details: Homo sapiens, anoxic, 4 h exposure, mean ± SEM, n = 3–4, read-out: IC50 Anoxic
Source text: as §1, §2

**Q.** Which IC50 does the source give for `Cc1ncc([N+](=O)[O-])n1CCS(=O)(=O)N1CCC(N(C)C)CC1` [Compound 46] here?
**A.** 1.9 ± 0.2 mM

Same assay, conditions: Homo sapiens, oxic, 4 h exposure, mean ± SEM, n = 3–4, read-out: IC50 Oxic

**Q.** With `Cc1ncc([N+](=O)[O-])n1CCS(=O)(=O)N1CCC(N(C)C)CC1` [Compound 46] as the compound, how does the IC50 read?
**A.** 8.1 ± 0.9 mM

Same assay, conditions: IC50(oxic)/IC50(anoxic)

**Q.** Which HCR does the source give for `Cc1ncc([N+](=O)[O-])n1CCS(=O)(=O)N1CCC(N(C)C)CC1` [Compound 46] here?
**A.** 4.4

System: FaDu cells
Test: as above
Type: cell-based
Details: Homo sapiens, anoxic, 4 h exposure, mean ± SEM, n = 3–4, read-out: IC50 Anoxic
Source text: as §1, §2

**Q.** With `O=[N+]([O-])c1cncn1CCN1CCOCC1` [Compound 3, nimorazole, reference compound] as the compound, how does the IC50 read?
**A.** 13.2 ± 3.4 mM

**Q.** With `Cc1ncc([N+](=O)[O-])n1CCS(=O)(=O)N1CCC(N(C)C)CC1` [Compound 46] as the compound, how does the IC50 read?
**A.** 1.3 ± 0.1 mM

Same assay, conditions: Homo sapiens, oxic, 4 h exposure, mean ± SEM, n = 3–4, read-out: IC50 Oxic

**Q.** For `O=[N+]([O-])c1cncn1CCN1CCOCC1` [Compound 3, nimorazole, reference compound], which IC50 is on record?
**A.** > 20 mM

**Q.** For `Cc1ncc([N+](=O)[O-])n1CCS(=O)(=O)N1CCC(N(C)C)CC1` [Compound 46], which IC50 is on record?
**A.** 9.5 ± 2 mM

Same assay, conditions: IC50(oxic)/IC50(anoxic)

**Q.** With `O=[N+]([O-])c1cncn1CCN1CCOCC1` [Compound 3, nimorazole, reference compound] as the compound, how does the HCR read?
**A.** >1.5

**Q.** For `Cc1ncc([N+](=O)[O-])n1CCS(=O)(=O)N1CCC(N(C)C)CC1` [Compound 46], which HCR is on record?
**A.** 7.3

System: HCT116/54C cells
Test: In vitro radiosensitisation under anoxia, clonogenic survival
Type: cell-based, human
Details: compound 1 mM, radiation dose for 1% survival/radiation dose for 1% survival with compound, mean ± SEM
Method: Next, we evaluated in vitro radiosensitisation by using a representative subset of nitroimidazole compounds in HCT116/54C cells with a clonogenic survival endpoint. Radiosensitisation was determined by treating cells under anoxia with a range of radiation doses alone and with compounds at equimolar doses (1 mM). Sensitiser enhancement ratios (SER) were calculated as the ratio of radiation dose required for 1% clonogenic survival alone or with compound (Table 3).
Cells were seeded onto 96-well plates at 10^5 cells per well and allowed to attach for 2 h. […] The plates were irradiated (Eldorado 78 ^60Co teletherapy unit, ~2 Gy/min) with 15 Gy under anoxia at room temperature for SR experiments. A metal wedge placed on the top of the metal chamber was used to achieve a graduated radiation dose across the plate, varying from 7 to 29 Gy, calibrated by Fricke dosimetry with ammonium thiocyanate as previously described for SER experiments. The control plate (compound alone, no radiation) was left inside the anaerobic chamber at room temperature during the irradiation period. After treatment, the cells were trypsinized and suspended in usual media + 1% penicillin-streptomycin (ThermoFisher Scientific), and 10-fold serial dilutions were plated for clonogenic survival. After 10 days, plates were stained with methylene blue (2 g/L in EtOH/H2O, 1:1 v/v) and colonies with more than 50 cells were counted. The surviving fraction (SF) was determined as: SF = PE(irradiated)/PE(control) where the plating efficiency (PE) = (No. of colonies)/(No. of cells plated). SF was plotted against radiation dose. Survival ratios (SR) were calculated: SR = (cell survival with radiation)/(cell survival with drug + radiation). Sensitizer enhancement ratios (SER) were calculated: SER = (radiation dose for 1% survival without compound)/(radiation dose for 1% survival with compound).

**Q.** Which “SER at 1 mM” value does the source give for `O=[N+]([O-])c1cncn1CCN1CCOCC1` [Compound 3, nimorazole, reference compound] here?
**A.** 1.20 ± 0.01

System: HCT116/54C tumours
Test: Tumour radiosensitisation: ex vivo clonogenic assay
Type: in vivo, NIH-III mice
Details: 2.2 mmol/kg i.v. 5 min prior to 10 Gy radiation, surviving fraction after radiation/surviving fraction after drug + radiation
Method: Specific pathogen-free six- to eight-week-old female NIH-III mice, bred in the Vernon Jansen Unit, University of Auckland, were used for animal experiments. Animals had ad libitum access to food and water and were maintained in microisolator cages on a 12 h light/dark cycle. All treatments were administered by i.v. injection at a dose of 2.2 mmol/kg and injection volume of 10 mL/kg. Compounds 2, 34 and 38 were administered as solutions in saline containing 1% DMSO or for 9–12 as solutions in saline containing 2 molar equivalents of NaHCO3. Control animals received an i.v. injection of saline at 10 mL/kg. All animal experiments were conducted under the auspices of the University of Auckland Animal Ethics Committee (approval 1781).
Compounds were evaluated for in vivo radiosensitisation of hypoxic cells in HCT116/54C and UT-SCC-74B human tumour xenografts using clonogenic survival as an endpoint, using previously report methods. Tumours were grown subcutaneously on the flanks of NIH-III mice by injecting 5 × 10^6 HCT116/54C cells or UT-SCC-74B cells. Once tumours reached a volume of approximately 250 mm^3, mice were randomly assigned to 4 treatment groups and treated with: (A) vehicle control, (B) 10 Gy RAD only, (C) sensitiser only, or (D) sensitiser given before 10 Gy RAD. Drugs were administered as a single i.v. dose at 2.2 mmol/kg. […] Tumours were excised 18 h after treatment, and tumour cells were dissociated enzymatically and plated to determine the number of surviving (clonogenic) cells per gram of tumour tissue. SF and SR were calculated as described above. Statistical significance of drug effects was tested using one-way ANOVA with Sidak tests for multiple comparisons vs. radiation alone (Table 5).

**Q.** For `O=[N+]([O-])c1nccn1CCS(=O)(=O)NCCOP(=O)(O)O` [Compound 10], which “Sensitisation Ratio” value is on record?
**A.** 1.78

**Q.** For `O=[N+]([O-])c1cncn1CS(=O)(=O)NCCOP(=O)(O)O` [Compound 11], which “Sensitisation Ratio” value is on record?
**A.** 1.85

**Q.** With `O=[N+]([O-])c1cncn1CCS(=O)(=O)NCCOP(=O)(O)O` [Compound 12] as the compound, how does the “Sensitisation Ratio” value read?
**A.** 3.32

Same assay, conditions: 2.2 mmol/kg i.v. + 10 Gy, one-way ANOVA

**Q.** With `O=[N+]([O-])c1nccn1CCS(=O)(=O)NCCOP(=O)(O)O` [Compound 10] as the compound, how does the “enhancement of tumour killing of radiotherapy (RAD vs drug + RAD)” value (shortened to “enhancement … (RAD vs drug + RAD)”) read?
**A.** not

**Q.** For `O=[N+]([O-])c1cncn1CS(=O)(=O)NCCOP(=O)(O)O` [Compound 11], which “enhancement … (RAD vs drug + RAD)” value is on record?
**A.** not

**Q.** With `O=[N+]([O-])c1cncn1CCS(=O)(=O)NCCOP(=O)(O)O` [Compound 12] as the compound, how does the “enhancement … (RAD vs drug + RAD)” value read?
**A.** significantly enhanced the tumour killing of radiotherapy

System: not given
Test: not given
Parameters: method as in PMID 29253343
Details: NIH-III mice, 2.2 mmol/kg i.v.; cited from earlier work

**Q.** For `O=[N+]([O-])c1nccn1CCS(=O)(=O)NCCOP(=O)(O)O` [Compound 10], which AUC is on record?
**A.** 640 µM·h

**Q.** And the T1/2?
**A.** 2.21 h

**Q.** Which AUC does the source give for `O=[N+]([O-])c1cncn1CS(=O)(=O)NCCOP(=O)(O)O` [Compound 11] here?
**A.** 710 µM·h

**Q.** What about the T1/2 of the same compound?
**A.** 1.72 h

Same assay, conditions: NIH-III mice, 2.2 mmol/kg i.v.; read-out: Plasma Cmax; cited from earlier work

**Q.** For `O=[N+]([O-])c1nccn1CCS(=O)(=O)NCCOP(=O)(O)O` [Compound 10], which Cmax is on record?
**A.** 1140 µM

**Q.** With `O=[N+]([O-])c1cncn1CS(=O)(=O)NCCOP(=O)(O)O` [Compound 11] as the compound, how does the Cmax read?
**A.** 1100 µM
